Measurements as given in patent publication US7238793B2 (Duke University, priority 2001, dated 2007).

System: 5X-Gal4-tata-Luc or TK-Gal4-Luc
Assay: Autonomous repressor activity, Gal4 DBD fusions on Gal4-responsive reporter genes in HepG2 cells
Assay type: cell-based
Conditions: fused to Gal4 DBD, both reporter genes

NCoR: known transcriptional repressor, nuclear receptor co-repressor
effect on transcriptional activity of Gal4-responsive reporter genes: inhibit
